# In patent publication US20220105096A1, “INHIBITORS OF HUMAN IMMUNODEFICIENCY VIRUS REPLICATION” (ViiV HEALTHCARE UK (NO.5) LIMITED, priority 2019, published 2022):
# Columns and labels:
# [1] = Metabolism in monkey liver microsomes; type: in vitro ADME
# Description: Liver microsomes from human, rat dog and monkey were thawed and diluted to a final concentration of 1 mg/mL in 100 mM potassium phosphate buffer (pH 7.4). Test compounds and controls were prepared at 100× final concentration of 1 μM in 1:1 acetonitrile:water (v/v) and aliquoted into microsomal mixture. The mixture was preincubated at 37° C. in a shaking water bath for 10 minutes. The incubations were performed in duplicate. Three controls were included in the incubations; warfarin, phenacetin, and verapamil. After the preincubation, the reaction was initiated with NADPH at a final concentration of 1 mM. At 0, 5, 15, 30, 45 and 60 minutes, 25 μL of sample was removed and quenched with 300 μL of acetonitrile containing internal standard (Telmisartan). The samples were vortexed for 5 minutes at 1200 rpm and then centrifuged at 4000 rpm for 10 min. A 100 μL aliquot of supernatant was diluted three-fold with water and injected on an Exion LC 4500 Triple Quad LC-MS/MS system. Results were reported as a percentage of parent remaining and was calculated from peak area ratios of test compound remaining after at each time point and compared to time zero incubation.
# [2] = tested on: human hepatocytes; assay: Metabolism in human hepatocytes; type: in vitro ADME; settings: 0.5 μM
# Description: Cryopreserved hepatocytes in suspension from human, monkey, dog, rat and mouse were thawed and diluted in pre-warmed William's Medium E (pH 7.4). Aliquots of the hepatocyte suspension were added to test compound working solutions prepared in pre-warmed William's Medium E (pH 7.4) to achieve final concentrations of 0.5 μM in 0.5×10^6 cells per milliliter and ≤0.25% DMSO. These samples were incubated at 37° C. with 5% carbon dioxide and shaking. The incubations were performed in singlet. At time points 0, 10, 30, 60, 120 and 240 minutes, a 50 μL aliquot of the incubation mixtures was removed and added to a 100 μL solution of acetonitrile containing internal standard and the mixture was then centrifuged at 4° C. and 3500 rpm for 15 minutes. Following completion of the experiment, samples were analyzed by LC-MS/MS. Metabolic stability results were reported as a percentage of parent test compound remaining. This percentage is calculated by dividing the LCMS peak area of test compound following incubation (tx) by the LCMS peak area of test compound at time-zero (t0) just prior to incubation.
# The elimination rate constant (k, min^−1) is calculated using nonlinear regression fitting with the following equation: […]
# where: C0 is the initial concentration represented as the peak area ratio (test compound peak area/internal standard peak area); Ct is the concentration at t represented as the area ratio (test compound peak area/internal standard peak area); e is the base of the natural logarithm t is the time (min); k is the elimination rate constant (min^−1). The half-life (t1/2, min) is calculated using the following equation: […]
# where: k is the elimination rate constant (min^−1). The in vitro intrinsic clearance (CLint, mL/min/million cells) is calculated using the following equation: […]
# where: t1/2 is the half-life; n is the number of cells per mL.
# [3] = Pharmacokinetic parameters in vivo, mouse; parameters: species or system male CD1 mice; settings: male, CD1, plasma
# Description: (§1) PK was investigated in male CD1 mice, Wistar Han Rats, Cynomolgus monkeys, and Beagle Dogs. Two groups of animals (N=3 per group) received test compound either as an intravenous (IV) dose (1 mg/kg) or by oral gavage (5 mg/kg solution and suspension). Drug was formulated in 90% PEG 400, 10% ethanol for IV administration and in 90% PEG400, 5% ethanol for PO administration. Blood samples were collected at 0.167, 0.25, 0.5, 0.75, 1, 2, 3, 5, 7, 24, 48, 72 and 96 h post dose for IV; 0.25, 0.5, 0.75, 1, 2, 3, 5, 7, 24, 48, 72 and 96 h post dose for oral. Blood samples were collected into K3EDTA tubes and centrifuged at 1500 to 2000×g to obtain plasma. Plasma samples were stored at −20° C. until analysis by LC-MS/MS. All […] samples were injected on an Exion LC 4500 Triple Quad™ LC-MS/MS system. The analytical column used was a Phenomenex C18 (C18, 4.6 mm×50 mm, 5 μm) maintained at room temperature. Mobile Phase A consisted of 0.1% (v/v) formic acid in MilliQ water. Mobile Phase B consisted of 100% methanol. The flow rate was 1 mL/min. […] All LC-MS/MS analysis parameters are captured electronically in the raw data files. The PK parameters were obtained by non-compartmental analysis of plasma concentration vs time data (Phoenix WinNonlin v8). The peak concentration (Cmax) and time for Cmax (Tmax) were recorded directly from experimental observations. The area under the curve from time zero to the last sampling time [AUC0-T] and the area under the curve from time zero to infinity [AUCINF] were calculated using a combination of linear and log trapezoidal summations. The total plasma clearance (CLTp), steady-state volume of distribution (Vss), apparent elimination half-life (T-HALF), and mean residence time (MRT) were estimated after IV administration. Estimations of AUC and T-HALF were made using a minimum of three timepoints with quantifiable concentrations. The absolute oral bioavailability (F) was estimated as the ratio of dose-normalized AUC values following oral and IV doses.
# [4] = Pharmacokinetic parameters in vivo, monkey; parameters: species or system Cynomolgus monkeys
# Description: as §1
# [5] = Allometric scaling of pre-clinical PK parameters to predict dose in human
# Description: Human dose predictions were performed using Phoenix WinNonlin (v 8.0) software and Microsoft Excel using the ModelRisk add-in for population modeling. Human IV parameters (Vc, Ka, K12, K21, KeI) were determined using Mean Residence Time (MRT) scaling from preclinical species (mouse, rat, dog and cyno). For this calculation, each animal of the relevant PK studies was modeled independently. Absorption (Ka) was determined by deconvolution (PO) or from the half-life (SC) in preclinical species (Ka=LN(2)/t1/2). The predicted human dose for PO and SC is calculated with consideration of human variability and is calculated to cover 95% of the human population.
# [6] = cynomolgus monkey, plasma, Monkey, IV 1 mg/kg
smiles,measurement,setting,value
"Cn1nc(NS(C)(=O)=O)c2c(Cl)ccc(-n3c([C@H](Cc4cc(F)cc(F)c4)NC(=O)Cn4nc(C(F)F)c5c4C(F)(F)[C@@H]4C[C@H]54)nc4nc(OCCC(C)(F)F)ccc4c3=O)c21 (atropisomer, axis not shown; (P)) [Example 1, N—((S)-1-((3P)-3-(4-chloro-1-methyl-3-(methylsulfonamido)-1H-indazol-7-yl)-7-(3,3-difluorobutoxy)-4-oxo-3,4-dihydropyrido[2,3-d]pyrimidin-2-yl)-2-(3,5-difluorophenyl)ethyl)-2-((3bS,4aR)-3-(difluoromethyl)-5,5-difluoro-3b,4,4a,5-tetrahydro-1H-cyclopropa[3,4]cyclopenta[1,2-c]pyrazol-1-yl)acetamide]",stability in monkey liver microsomes relative to Example 60.2,[1]; Example 1 versus Example 60.2,at least two times more stable
same,half-life at 1 μM,"[1]; monkey, liver microsomes, pH 7.4, 1 μM compound, 1 mg/mL microsomes, NADPH, 37° C., read-out: Monkey liver microsome T1/2",> 2 h
same,intrinsic clearance in human hepatocytes,[2],less than 0.2 mL/min/g liver
same,half-life in human hepatocytes,[2]; 0.5×10^6 cells per milliliter,could not be measured
same,parent remaining after incubation in human hepatocytes,[2]; 240 minute incubation,no metabolism was measurable
same,clearance,[3]; IV 1 mg/kg,1.77 mL/min/kg
same,half-life,[3]; IV 1 mg/kg,7.8 h
same,Vd,"[3]; IV 1 mg/kg, read-out: Vss",1.14 L/kg
same,bioavailability,[3]; oral gavage 5 mg/kg vs IV 1 mg/kg,76.7%
same,clearance,[4]; [6],8.8 mL/min/kg
same,half-life,[4]; [6],4.2 h
same,Vd,"[4]; cynomolgus monkey, plasma, Monkey, IV 1 mg/kg, read-out: Vss",1.73 L/kg
same,bioavailability,"[4]; cynomolgus monkey, plasma, Monkey, oral gavage 5 mg/kg solution vs IV 1 mg/kg",7.92%
same,half-life in circulation higher than Example 60.2,[4]; monkey,three-fold
same,clearance improved relative to Example 60.2,"[4]; monkey, IV",2.5 fold
same,predicted once-daily oral dose in human lower than for Example 60.2,[5]; Example 1 versus Example 60.2,15 fold
same,predicted Q1M SC dose in human lower than for Example 60.2,[5]; from SC rat apparent half-lives and predicted human clearance,20 fold
same,predicted human QD PO dose,"[5]; once-daily oral dose to maintain efficacious plasma concentration, covers 95% of human population",less than 5 mg
